Measurements taken from US5087614A, “Enzyme inhibitor and method of producing the same” (Suntory Limited, priority 1987, dated 1992).
pIC50: −log10 of the molar value. Where a SMILES comes first, the peptide text is derived from it. [ ]: non-standard residue; d: D form. The star is where a group is joined. Sta = CC(C)C[C@H](N)[C@@H](O)CC(=O)O; Isovaleryl = CC(C)CC(=O)*

Target: T1, Pepsin (Bos taurus, UniProt P00792)
T1 construct: from tissue; host or cells: bovine pancreas (so in the source)
Test: Inhibition against pepsin (hemoglobin degradation, UV absorption at 280 nm)
Assay type: biochemical, Bovine
Conditions: substrate 2.0% hemoglobin in 0.06N-hydrochloric acid, 35° C., 10 minutes; read-out: IC50 (concentration of the compound required to achieve 50% inhibition)
Experimental: (a) Inhibition against Pepsin from Bovine Pancreas
To this mixture was added (150-a) μl of 0.06N-hydrochloric acid to adjust the pH value of the mixture to 3 to 5. Each of the solutions was then mixed with a substrate solution to start the reaction. The substrate for the reaction comprised 2.0% hemoglobin in 800 μl of 0.06N-hydrochloric acid and the reaction was conducted at 35° C. for 10 minutes, the total volume of the reaction mixture being 1 ml. 3 ml of 5% trichloroacetic acid was then added to the reaction mixture to terminate the reaction. After the precipitates formed had been filtered off, the amount of protein in the trichloroacetic acid fraction which contained the components of hemoglobin hydrolyzed with pepsin was measured from the value of ultraviolet absorption at 280 nm.

T1 sequence (P00792 43-372): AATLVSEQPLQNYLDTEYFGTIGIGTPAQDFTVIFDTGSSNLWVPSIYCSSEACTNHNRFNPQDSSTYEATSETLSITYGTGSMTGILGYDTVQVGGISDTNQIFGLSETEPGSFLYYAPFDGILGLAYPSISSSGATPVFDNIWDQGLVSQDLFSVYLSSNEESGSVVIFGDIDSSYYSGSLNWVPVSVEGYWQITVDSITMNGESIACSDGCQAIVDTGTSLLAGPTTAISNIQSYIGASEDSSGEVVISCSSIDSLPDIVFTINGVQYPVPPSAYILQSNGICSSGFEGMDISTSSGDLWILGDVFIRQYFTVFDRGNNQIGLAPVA

- pIC50: 7.74
Structure (SMILES): CC(C)CC(=O)N[C@H](C(=O)N[C@H](C(=O)N[C@@H](CC(C)C)[C@@H](O)CC(=O)N[C@@H](C)C(=O)N[C@@H](CC(C)C)[C@@H](O)CC(=O)O)C(C)C)C(C)C [Pepstatin] (Isovaleryl-VV[Sta]A[Sta]-OH)
